Laboratory results as given in ChEMBL document CHEMBL3991601, “The target landscape of clinical kinase drugs” (Science, 2017).
The source made the active and inactive calls.

Legend:
[1] = target: Bone morphogenetic protein receptor type-1A (Homo sapiens, UniProt P36894)
[2] = target: T1, RNA cytidine acetyltransferase (Homo sapiens, UniProt Q9H0A0)
T1 sequence (Q9H0A0 whole entry): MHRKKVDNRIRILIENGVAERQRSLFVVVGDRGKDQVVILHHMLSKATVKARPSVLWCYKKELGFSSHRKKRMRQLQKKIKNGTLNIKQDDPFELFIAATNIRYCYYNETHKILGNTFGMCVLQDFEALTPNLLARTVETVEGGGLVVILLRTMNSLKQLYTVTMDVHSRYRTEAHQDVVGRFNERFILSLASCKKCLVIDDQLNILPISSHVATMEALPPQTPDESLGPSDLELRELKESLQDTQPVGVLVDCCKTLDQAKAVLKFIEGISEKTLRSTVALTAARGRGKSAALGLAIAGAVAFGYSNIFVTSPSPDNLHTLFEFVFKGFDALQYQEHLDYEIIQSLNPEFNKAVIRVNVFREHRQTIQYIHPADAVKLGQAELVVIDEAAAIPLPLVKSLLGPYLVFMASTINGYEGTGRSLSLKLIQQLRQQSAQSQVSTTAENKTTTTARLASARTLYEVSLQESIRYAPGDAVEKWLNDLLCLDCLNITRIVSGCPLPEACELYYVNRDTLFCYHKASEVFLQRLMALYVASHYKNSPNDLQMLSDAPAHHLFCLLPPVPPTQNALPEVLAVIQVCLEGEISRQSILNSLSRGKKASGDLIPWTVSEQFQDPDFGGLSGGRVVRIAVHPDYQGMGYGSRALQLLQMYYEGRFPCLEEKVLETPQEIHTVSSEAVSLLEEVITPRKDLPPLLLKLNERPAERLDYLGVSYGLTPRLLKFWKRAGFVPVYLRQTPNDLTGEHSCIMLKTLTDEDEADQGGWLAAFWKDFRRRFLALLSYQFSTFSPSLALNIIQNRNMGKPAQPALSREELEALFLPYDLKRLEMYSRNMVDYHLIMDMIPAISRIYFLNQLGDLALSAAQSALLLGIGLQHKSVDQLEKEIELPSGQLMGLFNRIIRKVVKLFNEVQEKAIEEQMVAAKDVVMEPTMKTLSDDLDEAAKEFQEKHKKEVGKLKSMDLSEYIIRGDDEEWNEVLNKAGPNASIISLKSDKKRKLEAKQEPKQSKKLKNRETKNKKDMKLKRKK

[3] = target: T2, Serine/threonine-protein kinase STK11 (Homo sapiens, UniProt Q15831)
T2 sequence (Q15831 whole entry): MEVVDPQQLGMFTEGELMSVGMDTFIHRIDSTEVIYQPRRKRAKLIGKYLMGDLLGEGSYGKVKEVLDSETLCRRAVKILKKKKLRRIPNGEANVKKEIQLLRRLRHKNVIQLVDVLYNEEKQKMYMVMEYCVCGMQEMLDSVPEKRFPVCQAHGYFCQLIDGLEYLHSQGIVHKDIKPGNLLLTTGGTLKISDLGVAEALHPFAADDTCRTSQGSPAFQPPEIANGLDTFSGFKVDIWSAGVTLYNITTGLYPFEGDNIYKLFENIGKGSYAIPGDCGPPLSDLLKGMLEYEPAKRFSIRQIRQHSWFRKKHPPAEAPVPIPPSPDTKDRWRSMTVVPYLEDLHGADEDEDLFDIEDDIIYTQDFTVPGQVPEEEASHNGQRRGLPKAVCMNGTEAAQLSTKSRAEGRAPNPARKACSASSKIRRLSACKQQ

[4] = target: Mitogen-activated protein kinase kinase kinase 4 (Homo sapiens, UniProt Q9Y6R4)
[5] = target: T3, Electron transfer flavoprotein subunit beta (Homo sapiens, UniProt P38117)
T3 sequence (P38117 whole entry): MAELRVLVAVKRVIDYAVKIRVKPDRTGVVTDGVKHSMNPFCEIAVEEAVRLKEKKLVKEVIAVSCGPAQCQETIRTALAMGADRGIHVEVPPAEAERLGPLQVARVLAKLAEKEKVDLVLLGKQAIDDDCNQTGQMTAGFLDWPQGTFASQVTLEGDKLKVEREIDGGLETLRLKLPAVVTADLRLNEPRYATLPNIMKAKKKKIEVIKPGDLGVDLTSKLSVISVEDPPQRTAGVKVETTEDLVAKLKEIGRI

[6] = target: Glycogen synthase kinase-3 alpha (Homo sapiens, UniProt P49840)
[7] = target: T4, Serine/threonine-protein kinase TAO1 (Homo sapiens, UniProt Q7L7X3)
T4 sequence (Q7L7X3 whole entry): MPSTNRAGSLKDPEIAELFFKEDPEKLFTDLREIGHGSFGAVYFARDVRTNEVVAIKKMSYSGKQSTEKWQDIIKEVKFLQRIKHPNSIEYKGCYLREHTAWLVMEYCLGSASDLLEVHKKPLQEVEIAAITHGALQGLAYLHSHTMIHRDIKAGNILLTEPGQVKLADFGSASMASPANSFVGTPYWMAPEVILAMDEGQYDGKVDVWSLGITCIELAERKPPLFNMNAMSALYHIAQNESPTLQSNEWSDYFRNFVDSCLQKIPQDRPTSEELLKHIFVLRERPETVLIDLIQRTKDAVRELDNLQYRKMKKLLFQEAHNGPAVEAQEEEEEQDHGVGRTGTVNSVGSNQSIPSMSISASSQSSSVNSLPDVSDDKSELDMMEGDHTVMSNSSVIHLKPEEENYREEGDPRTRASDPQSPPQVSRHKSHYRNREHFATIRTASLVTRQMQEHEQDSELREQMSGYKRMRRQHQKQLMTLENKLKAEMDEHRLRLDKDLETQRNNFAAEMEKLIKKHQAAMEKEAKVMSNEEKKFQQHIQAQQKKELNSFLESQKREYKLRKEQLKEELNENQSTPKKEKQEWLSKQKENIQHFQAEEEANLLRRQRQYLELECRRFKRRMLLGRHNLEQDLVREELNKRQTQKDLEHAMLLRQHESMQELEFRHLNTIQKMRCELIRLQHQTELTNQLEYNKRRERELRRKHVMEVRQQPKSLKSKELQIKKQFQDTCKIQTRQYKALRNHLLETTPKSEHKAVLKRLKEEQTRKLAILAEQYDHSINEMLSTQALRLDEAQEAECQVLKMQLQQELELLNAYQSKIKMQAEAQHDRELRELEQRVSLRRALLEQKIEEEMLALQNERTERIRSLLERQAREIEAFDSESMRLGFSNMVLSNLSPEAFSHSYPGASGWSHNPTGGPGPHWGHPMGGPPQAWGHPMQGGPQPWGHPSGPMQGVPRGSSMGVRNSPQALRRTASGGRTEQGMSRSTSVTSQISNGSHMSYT

[8] = target: Serine/threonine-protein kinase/endoribonuclease IRE1 (Homo sapiens, UniProt O75460)
Note: in the data inactive means no Kd found up to 30 µM.

Chain of Bone morphogenetic protein receptor type-1A (P36894 whole entry): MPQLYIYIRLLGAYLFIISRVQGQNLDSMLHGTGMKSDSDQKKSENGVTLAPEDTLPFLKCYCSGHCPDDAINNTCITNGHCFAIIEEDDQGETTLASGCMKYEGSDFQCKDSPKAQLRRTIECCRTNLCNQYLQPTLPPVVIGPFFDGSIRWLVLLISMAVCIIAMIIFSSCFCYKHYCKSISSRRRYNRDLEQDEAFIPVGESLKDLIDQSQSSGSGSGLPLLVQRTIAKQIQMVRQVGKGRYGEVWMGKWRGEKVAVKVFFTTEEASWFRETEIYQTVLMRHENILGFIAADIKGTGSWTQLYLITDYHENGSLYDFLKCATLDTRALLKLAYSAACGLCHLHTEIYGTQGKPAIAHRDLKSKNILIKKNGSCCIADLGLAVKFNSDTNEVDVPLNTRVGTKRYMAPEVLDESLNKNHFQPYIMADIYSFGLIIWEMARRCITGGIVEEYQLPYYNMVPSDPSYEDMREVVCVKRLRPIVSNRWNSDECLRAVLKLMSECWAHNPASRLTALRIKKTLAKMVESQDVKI
Chain of Mitogen-activated protein kinase kinase kinase 4 (Q9Y6R4 whole entry): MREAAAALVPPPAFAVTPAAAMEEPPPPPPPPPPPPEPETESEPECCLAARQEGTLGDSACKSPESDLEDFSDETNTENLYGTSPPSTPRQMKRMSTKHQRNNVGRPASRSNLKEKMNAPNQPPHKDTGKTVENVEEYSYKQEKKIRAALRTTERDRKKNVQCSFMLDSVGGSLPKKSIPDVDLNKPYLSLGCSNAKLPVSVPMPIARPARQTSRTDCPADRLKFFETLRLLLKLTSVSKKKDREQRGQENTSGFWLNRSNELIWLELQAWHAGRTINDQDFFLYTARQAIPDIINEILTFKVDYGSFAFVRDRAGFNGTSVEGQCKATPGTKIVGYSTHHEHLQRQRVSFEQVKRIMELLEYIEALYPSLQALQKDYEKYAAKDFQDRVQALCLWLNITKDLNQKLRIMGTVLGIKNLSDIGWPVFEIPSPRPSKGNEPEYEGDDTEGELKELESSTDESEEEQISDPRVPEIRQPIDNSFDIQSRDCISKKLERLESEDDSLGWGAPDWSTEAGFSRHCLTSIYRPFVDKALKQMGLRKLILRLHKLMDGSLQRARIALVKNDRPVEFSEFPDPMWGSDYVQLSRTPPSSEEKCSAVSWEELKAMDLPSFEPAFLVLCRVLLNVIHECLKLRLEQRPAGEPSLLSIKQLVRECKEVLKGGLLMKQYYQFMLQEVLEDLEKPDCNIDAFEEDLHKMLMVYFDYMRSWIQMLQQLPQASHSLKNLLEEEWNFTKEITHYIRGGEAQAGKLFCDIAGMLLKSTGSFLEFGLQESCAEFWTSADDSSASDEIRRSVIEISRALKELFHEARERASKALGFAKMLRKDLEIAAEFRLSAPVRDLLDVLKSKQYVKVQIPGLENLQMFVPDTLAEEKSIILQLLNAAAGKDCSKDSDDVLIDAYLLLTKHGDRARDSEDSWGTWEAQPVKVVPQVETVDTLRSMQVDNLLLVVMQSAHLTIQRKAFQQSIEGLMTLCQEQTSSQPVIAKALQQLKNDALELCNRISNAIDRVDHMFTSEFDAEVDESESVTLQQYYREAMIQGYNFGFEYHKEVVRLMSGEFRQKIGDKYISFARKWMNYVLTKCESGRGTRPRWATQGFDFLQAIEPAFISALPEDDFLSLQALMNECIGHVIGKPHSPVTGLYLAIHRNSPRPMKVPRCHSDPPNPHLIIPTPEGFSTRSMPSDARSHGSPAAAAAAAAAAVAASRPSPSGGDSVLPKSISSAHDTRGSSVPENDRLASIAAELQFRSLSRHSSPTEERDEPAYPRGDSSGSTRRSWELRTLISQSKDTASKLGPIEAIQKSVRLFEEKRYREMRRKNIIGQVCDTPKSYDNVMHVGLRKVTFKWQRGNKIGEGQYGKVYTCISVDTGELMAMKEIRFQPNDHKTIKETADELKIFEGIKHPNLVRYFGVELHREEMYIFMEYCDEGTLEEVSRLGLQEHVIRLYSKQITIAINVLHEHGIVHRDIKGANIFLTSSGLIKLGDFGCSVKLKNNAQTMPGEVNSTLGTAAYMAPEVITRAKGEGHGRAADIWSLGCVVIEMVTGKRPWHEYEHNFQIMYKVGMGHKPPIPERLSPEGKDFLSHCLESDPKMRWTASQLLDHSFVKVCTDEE
Chain of Glycogen synthase kinase-3 alpha (P49840 whole entry): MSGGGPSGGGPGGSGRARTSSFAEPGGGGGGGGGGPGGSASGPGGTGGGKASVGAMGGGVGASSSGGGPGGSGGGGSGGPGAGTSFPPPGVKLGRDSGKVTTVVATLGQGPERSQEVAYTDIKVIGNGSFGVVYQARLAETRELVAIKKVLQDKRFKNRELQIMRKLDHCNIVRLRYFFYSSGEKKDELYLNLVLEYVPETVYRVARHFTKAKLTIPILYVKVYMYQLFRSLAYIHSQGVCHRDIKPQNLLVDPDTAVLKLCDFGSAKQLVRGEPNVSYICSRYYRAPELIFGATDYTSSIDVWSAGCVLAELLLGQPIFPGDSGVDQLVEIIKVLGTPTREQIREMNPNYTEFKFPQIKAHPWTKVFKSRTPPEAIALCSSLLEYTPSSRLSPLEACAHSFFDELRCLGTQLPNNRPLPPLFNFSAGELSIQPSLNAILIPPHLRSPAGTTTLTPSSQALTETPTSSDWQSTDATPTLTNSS
Chain of Serine/threonine-protein kinase/endoribonuclease IRE1 (O75460 whole entry): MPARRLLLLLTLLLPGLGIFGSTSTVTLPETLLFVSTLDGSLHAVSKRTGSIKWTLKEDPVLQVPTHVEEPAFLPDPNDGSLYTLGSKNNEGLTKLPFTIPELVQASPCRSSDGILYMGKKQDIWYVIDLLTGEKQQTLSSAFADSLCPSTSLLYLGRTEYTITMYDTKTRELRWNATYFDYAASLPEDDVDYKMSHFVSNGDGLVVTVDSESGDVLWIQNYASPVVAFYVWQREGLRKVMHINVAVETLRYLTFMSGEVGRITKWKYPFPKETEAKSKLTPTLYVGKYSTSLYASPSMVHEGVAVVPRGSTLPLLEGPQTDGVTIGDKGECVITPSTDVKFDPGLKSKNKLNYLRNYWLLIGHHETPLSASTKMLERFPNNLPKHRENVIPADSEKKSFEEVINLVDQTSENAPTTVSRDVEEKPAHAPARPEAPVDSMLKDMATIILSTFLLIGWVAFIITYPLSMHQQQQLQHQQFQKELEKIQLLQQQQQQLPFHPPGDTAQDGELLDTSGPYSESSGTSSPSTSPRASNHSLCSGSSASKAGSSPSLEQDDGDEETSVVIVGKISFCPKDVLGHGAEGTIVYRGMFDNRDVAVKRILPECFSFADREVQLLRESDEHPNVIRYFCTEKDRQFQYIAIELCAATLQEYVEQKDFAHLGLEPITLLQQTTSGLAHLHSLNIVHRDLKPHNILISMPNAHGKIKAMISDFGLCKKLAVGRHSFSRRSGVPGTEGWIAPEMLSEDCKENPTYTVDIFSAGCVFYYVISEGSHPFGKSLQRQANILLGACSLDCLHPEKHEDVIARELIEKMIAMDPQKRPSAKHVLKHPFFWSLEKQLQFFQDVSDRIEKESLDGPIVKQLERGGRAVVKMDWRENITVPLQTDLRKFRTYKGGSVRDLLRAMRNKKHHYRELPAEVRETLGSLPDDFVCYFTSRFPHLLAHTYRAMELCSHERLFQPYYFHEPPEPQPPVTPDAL

SMILES	Kd [1]	Kd [2]	Kd [3]	Kd [4]	Kd [5]	Kd [6]	Kd [7]	Kd [8]
CNC(=O)c1ccc(C)c(-n2c(C)cc(OCc3ccc(F)cc3F)c(Br)c2=O)c1 [PH-797804]	> 30 µM (inactive)	> 30 µM (inactive)	> 30 µM (inactive)	> 30 µM (inactive)	> 30 µM (inactive)	> 30 µM (inactive)	> 30 µM (inactive)	> 30 µM (inactive)
CNC(=O)c1cc(Oc2ccc(NC(=O)Nc3ccc(Cl)c(C(F)(F)F)c3)c(F)c2)ccn1 [REGORAFENIB]	> 30 µM (inactive)	> 30 µM (inactive)	> 30 µM (inactive)	> 30 µM (inactive)	> 30 µM (inactive)	> 30 µM (inactive)	> 30 µM (inactive)	> 30 µM (inactive)
COCCNCc1ccc(-c2cc3nccc(Oc4ccc(NC(=S)NC(=O)Cc5ccc(F)cc5)cc4F)c3s2)nc1 [GLESATINIB]	> 30 µM (inactive)	> 30 µM (inactive)	> 30 µM (inactive)	> 30 µM (inactive)	> 30 µM (inactive)	> 30 µM (inactive)	> 30 µM (inactive)	> 30 µM (inactive)
CCN1CCN(Cc2ccc(-c3cc4c(N[C@H](C)c5ccccc5)ncnc4[nH]3)cc2)CC1 [AEE-788]	> 30 µM (inactive)	> 30 µM (inactive)	> 30 µM (inactive)	2.19 µM (active)	> 30 µM (inactive)	> 30 µM (inactive)	> 30 µM (inactive)	> 30 µM (inactive)
CN1CC[C@@H](c2c(O)cc(O)c3c(=O)cc(-c4ccccc4Cl)oc23)[C@@H]1CO	> 30 µM (inactive)	> 30 µM (inactive)	> 30 µM (inactive)	> 30 µM (inactive)	> 30 µM (inactive)	> 30 µM (inactive)	> 30 µM (inactive)	> 30 µM (inactive)
COc1cc2nccc(Oc3ccc(NC(=O)Nc4cc(C)on4)c(Cl)c3)c2cc1OC [TIVOZANIB]	> 30 µM (inactive)	> 30 µM (inactive)	> 30 µM (inactive)	> 30 µM (inactive)	> 30 µM (inactive)	> 30 µM (inactive)	> 30 µM (inactive)	> 30 µM (inactive)
CNC(=O)c1ccc(-c2cnc3ncc(Cc4ccc5ncccc5c4)n3n2)cc1F [CAPMATINIB]	> 30 µM (inactive)	> 30 µM (inactive)	> 30 µM (inactive)	> 30 µM (inactive)	> 30 µM (inactive)	> 30 µM (inactive)	> 30 µM (inactive)	> 30 µM (inactive)
CC[C@@H]1C(=O)N(C)c2cnc(Nc3ccc(C(=O)N[C@H]4CC[C@H](N5CCN(CC6CC6)CC5)CC4)cc3OC)nc2N1C(C)C [VOLASERTIB]	> 30 µM (inactive)	> 30 µM (inactive)	> 30 µM (inactive)	> 30 µM (inactive)	> 30 µM (inactive)	> 30 µM (inactive)	> 30 µM (inactive)	> 30 µM (inactive)
CN1CCC(COc2cnc(-c3cccc(Cn4nc(-c5cccc(C#N)c5)ccc4=O)c3)nc2)CC1 [TEPOTINIB]	> 30 µM (inactive)	> 30 µM (inactive)	> 30 µM (inactive)	> 30 µM (inactive)	> 30 µM (inactive)	> 30 µM (inactive)	> 30 µM (inactive)	> 30 µM (inactive)
Cc1cc2c(F)c(Oc3ncnn4cc(OC[C@@H](C)OC(=O)[C@H](C)N)c(C)c34)ccc2[nH]1 [BRIVANIB ALANINATE]	> 30 µM (inactive)	> 30 µM (inactive)	> 30 µM (inactive)	> 30 µM (inactive)	> 30 µM (inactive)	> 30 µM (inactive)	> 30 µM (inactive)	> 30 µM (inactive)
CN1N=C(N)c2cn([C@@H]3O[C@H](COP(=O)(O)O)[C@@H](O)[C@H]3O)c3ncnc1c23 [TRICIRIBINE PHOSPHATE]	> 30 µM (inactive)	> 30 µM (inactive)	> 30 µM (inactive)	> 30 µM (inactive)	> 30 µM (inactive)	> 30 µM (inactive)	> 30 µM (inactive)	> 30 µM (inactive)
Cc1cc([C@@H](C)Nc2ccccc2C(=O)O)c2nc(N3CCOCC3)cc(=O)n2c1 [AZD-6482]	> 30 µM (inactive)	> 30 µM (inactive)	> 30 µM (inactive)	> 30 µM (inactive)	> 30 µM (inactive)	> 30 µM (inactive)	> 30 µM (inactive)	> 30 µM (inactive)
COC(=O)[C@@]1(O)C[C@H]2O[C@]1(C)n1c3ccccc3c3c4c(c5c6ccccc6n2c5c31)C(=O)NC4 [K-252A]	> 30 µM (inactive)	> 30 µM (inactive)	> 30 µM (inactive)	> 30 µM (inactive)	> 30 µM (inactive)	> 30 µM (inactive)	18.8 µM (active)	0.019 µM (active)
CCS(=O)(=O)N1CC(CC#N)(n2cc(-c3ncnc4[nH]ccc34)cn2)C1 [BARICITINIB]	> 30 µM (inactive)	> 30 µM (inactive)	> 30 µM (inactive)	> 30 µM (inactive)	> 30 µM (inactive)	> 30 µM (inactive)	> 30 µM (inactive)	> 30 µM (inactive)
Cc1cc(-c2cc(O)ccc2Cl)cc2nnc(Nc3ccc(OCCN4CCCC4)cc3)nc12	> 30 µM (inactive)	> 30 µM (inactive)	> 30 µM (inactive)	> 30 µM (inactive)	> 30 µM (inactive)	> 30 µM (inactive)	> 30 µM (inactive)	> 30 µM (inactive)
O=C(c1ccc(F)c(F)c1Nc1ccc(I)cc1F)N1CC(O)([C@@H]2CCCCN2)C1 [COBIMETINIB]	> 30 µM (inactive)	> 30 µM (inactive)	> 30 µM (inactive)	> 30 µM (inactive)	> 30 µM (inactive)	> 30 µM (inactive)	> 30 µM (inactive)	> 30 µM (inactive)
